Experimental data: PubChem BioAssay AID489022 (Sanford-Burnham Center for Chemical Genomics, 2010)
pIC50: −log10 of the molar value. “And” between values parts separate entries of the source, which are not always exact repeats. Equal values may be shown once. The source made the active and inactive calls. How the calls were made is not given here.

Test system: HEK-293T NF-kB luciferase reporter, luminescence counterscreen
Assay: NF-kB reporter suppression in HEK-293T cells – luminescence, B-cell screen hits, counter-screen for BCR NF-kB inhibitor project, dose response (AID 489022)

Row | SMILES | IC50 | pIC50
1 | COc1ccc(/C=C\C(=O)O[C@@H]2C(O)C(O[C@@H]3OC(C)[C@H](O[C@@H]4OCC(O[C@H]5O[C@H](CO)[C@@H](O)C(O)C5O)C(O)C4O)C(O)C3O)[C@H](OC(=O)[C@]34CCC(C)(C)C[C@@H]3C3=CCC5[C@@]6(C)CC(O)C(O[C@@H]7OC(CO)C(O)[C@H](O)[C@H]7O)[C@@](C)(C(=O)O)C6CC[C@@]5(C)[C@]3(CO)CC4)O[C@H]2C)cc1 (stereo partly specified) | 45.7 µM (inactive) | –
2 | CCOCCCNc1nc2c(C)cccn2c(=O)c1/C=C1\SC(=S)N(C(C)CC)C1=O (stereo unspecified) | > 80 µM (inactive) | –
3 | Cc1ccoc1C(=O)Nc1ccc(CC(=O)O)cc1 | – | 4.85
4 | Cc1ccc(C(=O)CSc2nnc(COc3ccccc3)o2)cc1 | 40.9 µM (inactive) | –
5 | O=C(CCCN1C(=O)/C(=C/c2ccccc2Cl)SC1=S)NNC(=O)c1ccccc1 | 21.8 µM (inactive) | –
6 | COc1ccc(-c2noc(N3CCC(C(=O)Nc4ccc(OC)c(OC)c4)CC3)n2)cc1 | > 80 µM (inactive) | –
7 | Cc1nc2ccccn2c1C(=O)/C=C/c1cccc([N+](=O)[O-])c1 | 52.6 µM (inactive) | –
8 | O=C(CSCCO)Nc1ccc(C23CC4CC(CC(C4)C2)C3)cc1 | – | 5.41
9 | O=C(Oc1cccc(/C=N/Nc2nc(N3CCOCC3)nc(N3CCOCC3)n2)c1)c1ccco1 | > 80 µM (inactive) | –
10 | O=C(NNC(=O)C12CC3CC(CC(C3)C1)C2)c1cccc(O)c1 | > 80 µM (inactive) | –
11 | COc1cc(OC)cc(-c2cc3nc(C)c(CCC(=O)NCc4ccccc4)c(C)n3n2)c1 | – | 4.98
12 | CCn1c(=O)cc(OCC(=O)Nc2ccc(OC)c(OC)c2)c2ccccc21 | 70.3 µM (inactive) | –
13 | COc1ccc2nc(Sc3c([N+](=O)[O-])nc(C)n3Cc3ccccc3)[nH]c2c1 | 55.4 µM (inactive) | –
14 | CCOC(=O)C1CCN(c2ncnc3c2cnn3-c2ccc(Cl)cc2)CC1 | – | 5.90
15 | Cc1c(CCC(=O)NCCCn2ccnc2)c(=O)oc2c(C)c3oc4c(c3cc12)CCCC4 | – | 5.18
16 | Cc1nc2cc(-c3cccc(F)c3)nn2c(C)c1CCC(=O)NC(C)CCc1ccco1 (stereo unspecified) | – | 4.94
17 | COc1ccc(/C=C/c2ccccc2)cc1[C@H]1[C@H]2C=CC[C@@H](C)[C@@H]2C(=O)N1Cc1ccccc1 | > 80 µM (inactive) | –
18 | Cn1c(=O)cc(SCC(=O)N2CCCC2)c2cc(Cl)ccc21 | > 80 µM (inactive) | –
19 | COc1ccccc1/C=C1/SC(=S)N(CCC(=O)Nc2cccnc2)C1=O | 37 µM (inactive) | –
20 | CCn1c(=O)c2cc(C(=O)NC(C)C)sc2c2ccccc21 | > 80 µM (inactive) | –
21 | Cc1cc(C)c2nc(NC(=O)[C@@H](NC(=O)c3cccc(S(=O)(=O)N4CCOCC4)c3)C(C)C)sc2c1 | > 80 µM (inactive) | –
22 | COc1ccc(OC)c(C2CC(=O)Nc3cc(OC)c(OC)c(OC)c32)c1 (stereo unspecified) | > 80 µM (inactive) | –
23 | C=C1C(=O)[C@@]23C[C@H]4[C@@H]5[C@@]6(C)CCC[C@@]57[C@@H]2[C@@H](O)[C@@H]1C[C@H]3[C@H]7N4C6 | – | 4.76
24 | Cc1ccc2nc(NC(=O)CSCC(=O)OCC(=O)c3ccc(Br)cc3)sc2c1 | – | 5.74

Row | SMILES | IC50 | pIC50
25 | COc1ccc(/C=C2\SC(=S)N(CCCC(=O)Nc3ccc(O)cc3)C2=O)cc1 | > 80 µM (inactive) | –
26 | CCOc1ccc(/C=C2\SC(=S)N(CCCC(=O)NCCCN3CCOCC3)C2=O)cc1 | > 80 µM (inactive) | –
27 | COc1ccc(C(C(=O)NC2CCCCC2)N(C(=O)CCl)c2ccc(OC)cc2)cc1 (stereo unspecified) | – | 4.82
28 | COc1ccc(C(=O)Nc2ccc(OC)c([N+](=O)[O-])c2)cc1Br | > 80 µM (inactive) | –
29 | N=c1c2c(n(Cc3cccc(Cl)c3)c3c1CCC3)CCCC2 | – | 5.42
30 | CSc1ccc(-c2nc(CSCC(=O)NC3CC3)c(C)o2)cc1 | 37.7 µM (inactive) | –
31 | CN(CC1CCCO1)S(=O)(=O)c1ccc(C(=O)Nc2nc3cc4c(cc3s2)OCO4)cc1 (stereo unspecified) | – | 6.44
32 | N=c1c2c(n(Cc3ccc(Cl)cc3Cl)c3c1CCC3)CCCC2 | – | 5.46
33 | O=C(CCCc1nc(-c2ccccc2Cl)no1)NC1CCCC1 | 27.1 µM (inactive) | –
34 | CC(C)Cn1c([N+](=O)[O-])nc2c1c(=O)[nH]c(=O)n2C | 37 µM (inactive) | –
35 | COc1ccc2nc(C)cc(Sc3nc4ccccc4s3)c2c1 | – | 4.95
36 | NC(=S)N=Nc1c(O)n(Cc2ccccc2)c2ccccc12 | > 80 µM (inactive) | –
37 | Cc1nc2cc(-c3ccccc3)nn2c(C)c1CCC(=O)N1CCC2(CC1)OCCO2 | 52 µM (inactive) | –
38 | NNC(=O)COc1ccc(-c2nccc(-c3ccc(F)cc3)n2)cc1 | 42.3 µM (inactive) | –
39 | CCc1ccc(-c2nc(CSCC(=O)NC3CC3)c(C)o2)cc1 | 30.5 µM (inactive) | –
40 | CCOc1ccc(-c2cc(CCCC(=O)NCCCOC)no2)cc1 | 60 µM (inactive) | –
41 | O=C(Nc1nc(-c2ccccc2)cs1)c1ccccc1NS(=O)(=O)c1ccc(F)cc1 | – | 6.41
42 | COc1ccc(-n2c(-c3ccc(Cl)cc3)c[n+]3c2CCc2ccccc2-3)cc1 | – | 5.50
43 | Cc1ccc(/C=C2\SC(=S)N(CCCC(=O)NC3CCCC3)C2=O)cc1 | > 80 µM (inactive) | –
44 | Cc1c(CCC(=O)O)c(=O)oc2cc3oc4c(c3cc12)CCCC4 | – | 5.23
45 | O=C(c1cc2nc(-c3ccccc3)cc(-c3ccccc3)n2n1)N1CCN(C(=O)c2ccco2)CC1 | – | 4.96
46 | Cc1ccc(Nc2nc(N3CCOCC3)nc(N3CCOCC3)n2)cc1C | 51.4 µM (inactive) | –
47 | CC(C)Oc1ccc(C(=O)Nc2ccc(N(C)C)cc2)cc1 | > 80 µM (inactive) | –
48 | CC(C)c1ccc(/C=C2\SC(=S)N(CCC(=O)NCCCn3ccnc3)C2=O)cc1 | 50.2 µM (inactive) | –

Row | SMILES | IC50 | pIC50
49 | Cn1nc(-c2ccc(N3CCOCC3)c(NS(=O)(=O)c3ccccc3)c2)c2ccccc2c1=O | 36.9 µM (inactive) | –
50 | O=C(CCl)N(c1ccc(Cl)cc1)c1c[nH]c2ccccc12 | – | 4.97
51 | CC(C)[C@H](N)c1nnc(SCC(=O)c2ccc(Cl)cc2)o1 | > 80 µM (inactive) | –
52 | CC(C)C(c1nnnn1Cc1ccccc1)N(Cc1ccco1)Cc1cccs1 (stereo unspecified) | – | 5.05
53 | CCN1C(=O)c2cccc3c(NC(=O)c4cccc(N5C(=O)CCC5=O)c4)ccc1c23 | > 80 µM (inactive) | –
54 | CSC1CCCCC1(O)CSc1nc2c(cc1C#N)CCCC2 (stereo unspecified) | > 80 µM (inactive) | –
55 | CCC(C)(C)c1ccc(OCCCC[n+]2ccccc2)c(C(C)(C)CC)c1 | – | 5.06
56 | CCOC(=O)N1CCN(c2ncnc3c2[nH]c2ccc(OC)cc23)CC1 | 20.1 µM (inactive) | –
57 | Cn1cnc([N+](=O)[O-])c1Sc1ccc([N+](=O)[O-])cc1 | > 80 µM (inactive) | –
58 | Nc1ccc(-c2cc3ccccc3oc2=O)cc1 | – | 5.45
59 | COc1ccc(/C=C2/SC(=S)N(CCCC(=O)Nc3ccc(O)cc3)C2=O)cc1 | > 80 µM (inactive) | –
60 | Cc1cc(C)cc(N2C(=O)NC(=O)/C(=C\c3cccn3-c3ccccc3)C2=O)c1 | > 80 µM (inactive) | –
61 | CCN(CC)c1ccc2cc(NC(=O)CCC(=O)O)c(=O)oc2c1 | – | 5.86
62 | COc1ccc(C(=O)Nc2cccc(NC(=O)c3ccc(OC)c(OC)c3)n2)cc1OC | – | 4.81
63 | Cc1ccc(-c2nsc3c(N4CCC(C(N)=O)CC4)ncnc23)cc1 | > 80 µM (inactive) | –
64 | COc1ccc(C2=NCc3nnc(C)n3-c3ccc(Cl)cc32)cc1Cl | > 80 µM (inactive) | –
65 | Cc1[nH]c2ccccc2c1C(=O)CN1C(=O)NC2(CC(C)CC(C)(C)C2)C1=O (stereo unspecified) | 43.3 µM (inactive) | –
66 | COc1cc(/C=N/Nc2nc(Nc3ccccc3)nc(N3CCOCC3)n2)ccc1OC(=O)c1ccco1 | > 80 µM (inactive) | –
67 | O=C(C1CCC1)N1CCN(S(=O)(=O)c2ccc([N+](=O)[O-])cc2)CC1 | > 80 µM (inactive) | –
68 | CCN1C(=O)Nc2cccc3cccc1c23 | – | 4.75
69 | O=C(CN1C(=O)c2ccccc2S1(=O)=O)N1CCc2ccccc21 | – | 6.05
70 | CCN(CC(=O)Nc1c(F)cccc1F)C(=O)c1cc(S(=O)(=O)N2CCOCC2)ccc1N1CCCC1 | > 80 µM (inactive) | –
71 | COc1ccc(OCc2cccc(C(=O)NN)c2)cc1 | – | 4.76
72 | CC(C)(C)c1ccc(-c2noc(CCC(=O)NCc3ccco3)n2)cc1 | – | 6.31

Row | SMILES | IC50 | pIC50
73 | C[C@H]1CCC/C=C/[C@@H]2C[C@H](O)C[C@H]2[C@H](O)/C=C/C(=O)O1 | – | 6.38 and 6.28
74 | Cc1ccc(-c2nn3c(C)nnc3c3ccccc23)cc1S(=O)(=O)NCCN1CCOCC1 | 32 µM (inactive) | –
75 | NC(=O)C1CCN(C(=O)COc2ccc3ccccc3c2Br)CC1 | > 80 µM (inactive) | –
76 | CN(C)c1cc[n+](Cc2c(Cl)cccc2Cl)cc1 | – | 5.01
77 | COc1cc(-c2[nH]nc3c2C(c2ccco2)C(C#N)=C(N)O3)cc(OC)c1OC (stereo unspecified) | > 80 µM (inactive) | –
78 | COc1cc(-c2nc3ccc(N4CCN(C)CC4)cc3[nH]2)cc(OC)c1OC | > 80 µM (inactive) | –
79 | COc1ccc(-c2n(Cc3ccccc3)c3ccccc3[n+]2Cc2ccccc2)cc1 | 24.2 µM (inactive) | –
80 | O=C(Nc1ccccc1C(=O)Nc1nnc(C(F)(F)F)s1)c1ccccc1 | – | 5.36
81 | C=CCn1c(O)c(C(CC)=NC(C)c2ccccc2)c(=O)[nH]c1=O (stereo unspecified) | 25 µM (inactive) | –
82 | Cn1c(=O)cc(OCCCC(=O)NCc2ccccn2)c2ccccc21 | > 80 µM (inactive) | –
83 | COc1ccc(-c2noc(CCCC(=O)Nc3ccc(C(N)=O)cc3)n2)cc1 | 27.3 µM (inactive) | –
84 | Cc1cc(OC(=O)c2ccccc2Cl)cc(=O)n1C | > 80 µM (inactive) | –
85 | Cc1c(CCO)c(=O)oc2n[nH]c(-c3ccccc3)c12 | > 80 µM (inactive) | –
86 | CCCCOc1ccc(NC(=O)C(=O)NCCCn2ccnc2)cc1 | 44.6 µM (inactive) | –
87 | Nc1ccccc1SCC(=O)Nc1nc(-c2ccccc2)cs1 | – | 4.93
88 | CC1Cc2ccccc2N1S(=O)(=O)c1cnc(Cl)c(Cl)c1 (stereo unspecified) | 77.8 µM (inactive) | –
89 | O=C(O)CCSc1nc2ccccc2s1 | – | 5.68
90 | CCn1c(=O)cc(SCC(=O)N2CCC(C)CC2)c2ccccc21 | 70.9 µM (inactive) | –
91 | Cc1ccc(Nc2nc(N/N=C\c3ccc4c(c3)OCO4)nc(N3CCOCC3)n2)cc1 | > 80 µM (inactive) | –
92 | Cc1ccc(NC(=O)O/N=C/c2c(C)nn(C(C)(C)C)c2C)cc1Cl | – | > 6.80
93 | CCOc1ccc(-c2nc(CSCC(=O)NC3CC3)c(C)o2)cc1 | > 80 µM (inactive) | –
94 | COC(=O)C1=C(c2ccc(-c3ccccc3)c(F)c2)C[C@@H]2CC[C@H]1N2C(=O)N1CCCC1 | – | 5.74
95 | Cc1ccc(S(=O)(=O)N2CCCCC2CCNC(=O)C(=O)NCc2ccncc2)cc1 (stereo unspecified) | 38.4 µM (inactive) | –
96 | CCSc1ncc(Cl)c(C(=O)Nc2sc3c(c2C(=O)NCc2cccnc2)CCCC3)n1 | > 80 µM (inactive) | –
